The record followed here is ChEMBL document CHEMBL1949505, “Total synthesis and structure-activity relationships of new echinocandin-like antifungal cyclolipohexapeptides” (2012).

Bridge positions count the residues as written; N and C are the ends. Square brackets hold non-standard residues; d marks the D form. Peptide text beside a SMILES is read from it. * marks the point of attachment. 2Naphthoyl(6-heptyloxy) = CCCCCCCOc1ccc2cc(C(=O)*)ccc2c1; 2Naphthoyl(6-octyloxy) = CCCCCCCCOc1ccc2cc(C(=O)*)ccc2c1; X2 = CCCCCCCOc1ccc(-c2ccc(-c3ccc(C(=O)*)cc3)cc2)cc1; X1 = CCCOc1ccc(-c2ccc(-c3ccc(C(=O)*)cc3)cc2)cc1; Pro(4S-NH2) = N[C@@H]1CN[C@H](C(=O)O)C1; hTyr = N[C@@H](CCc1ccc(O)cc1)C(=O)O; Orn = NCCC[C@H](N)C(=O)O

Holding throughout (type): functional
One test has as its system Candida albicans. In words: Antifungal activity against Candida albicans after 24 hrs by serial dilution method.
The subject of a further test is Candida parapsilosis. The experiment in a line: Antifungal activity against Candida parapsilosis after 24 hrs by serial dilution method. The conditions noted are these: Lodderomyces parapsilosis.
Another test relates to Aspergillus fumigatus. In words: Antifungal activity against Aspergillus fumigatus after 7 days by serial dilution method. Particulars: 168 h.
A further test deals with Trichophyton rubrum. In words: Antifungal activity against Trichophyton rubrum after 7 days by serial dilution method. Particulars: 168 h.
In the next test the test system is Cryptococcus neoformans. The experiment in a line: Antifungal activity against Cryptococcus neoformans after 72 hrs by serial dilution method.
Another test has as its system Candida tropicalis. In words: Antifungal activity against Candida tropicalis after 24 hrs by serial dilution method.
The next test relates to Pichia kudriavzevii. The experiment in a line: Antifungal activity against Candida krusei after 24 hrs by serial dilution method.

As a reminder, the MIC80 is the lowest concentration that inhibits either 80% of growth or 80% of the strains tested, depending on the study. A higher MIC80 goes with weaker potency. As for `CCCCCOc1ccc2cc(C(=O)N[C@H]3CCCNC(=O)[C@@H]4C[C@H](N)CN4C(=O)[C@H]([C@H](C)O)NC(=O)[C@H](CCc4ccc(O)cc4)NC(=O)[C@@H]4C[C@H](N)CN4C(=O)[C@H]([C@@H](C)O)NC3=O)ccc2c1.Cc1ccc(S(=O)(=O)O)cc1`, the MIC80 against Candida albicans was 2 µg/mL; in the test on Candida parapsilosis, 32 µg/mL; against Aspergillus fumigatus it was over 64 µg/mL; in the test with Trichophyton rubrum it was over 64 µg/mL; with Cryptococcus neoformans it was over 64 µg/mL; in the test with Candida tropicalis, over 64 µg/mL. This compound also showed an MIC80 against Pichia kudriavzevii of 8 µg/mL.

`CCCCCCOc1ccc2cc(C(=O)N[C@H]3CCCNC(=O)[C@@H]4C[C@H](N)CN4C(=O)[C@H]([C@H](C)O)NC(=O)[C@H](CCc4ccc(O)cc4)NC(=O)[C@@H]4C[C@H](N)CN4C(=O)[C@H]([C@@H](C)O)NC3=O)ccc2c1.Cc1ccc(S(=O)(=O)O)cc1`: the MIC80 is 2 µg/mL in the test with Candida albicans; 32 µg/mL in the test on Candida parapsilosis; over 64 µg/mL with Aspergillus fumigatus; over 64 µg/mL in the test with Trichophyton rubrum; over 64 µg/mL against Cryptococcus neoformans; 64 µg/mL against Candida tropicalis. In the test with Pichia kudriavzevii, this compound showed an MIC80 of 2 µg/mL.

As to `CCCCCCCOc1ccc2cc(C(=O)N[C@H]3CCCNC(=O)[C@@H]4C[C@H](N)CN4C(=O)[C@H]([C@H](C)O)NC(=O)[C@H](CCc4ccc(O)cc4)NC(=O)[C@@H]4C[C@H](N)CN4C(=O)[C@H]([C@@H](C)O)NC3=O)ccc2c1.Cc1ccc(S(=O)(=O)O)cc1`, the MIC80 in the test with Candida albicans was 2 µg/mL; against Candida parapsilosis it was 32 µg/mL; in the test with Aspergillus fumigatus, over 64 µg/mL; in the test on Trichophyton rubrum it was over 64 µg/mL; against Cryptococcus neoformans, over 64 µg/mL; against Candida tropicalis, 64 µg/mL. For the same compound, in the test on Pichia kudriavzevii, the MIC80 worked out at 8 µg/mL.

Turning to `CCCCCCCCOc1ccc2cc(C(=O)N[C@H]3CCCNC(=O)[C@@H]4C[C@H](N)CN4C(=O)[C@H]([C@H](C)O)NC(=O)[C@H](CCc4ccc(O)cc4)NC(=O)[C@@H]4C[C@H](N)CN4C(=O)[C@H]([C@@H](C)O)NC3=O)ccc2c1.Cc1ccc(S(=O)(=O)O)cc1`, the MIC80 was 2 µg/mL against Candida albicans; 32 µg/mL with Candida parapsilosis; over 64 µg/mL with Aspergillus fumigatus; over 64 µg/mL in the test with Trichophyton rubrum; over 64 µg/mL in the test on Cryptococcus neoformans; 32 µg/mL with Candida tropicalis. In the test with Pichia kudriavzevii, the MIC80 turned out to be 8 µg/mL.

Consider `CCCCCCCOc1ccc2cc(C(=O)N[C@H]3CCCNC(=O)[C@@H]4C[C@H](N)CN4C(=O)[C@H]([C@H](C)O)NC(=O)[C@H](CCc4ccc(O)cc4)NC(=O)[C@@H]4C[C@H](N)CN4C(=O)[C@H](CO)NC3=O)ccc2c1.Cc1ccc(S(=O)(=O)O)cc1`, for which the MIC80 was over 64 µg/mL in the test on Candida albicans; 32 µg/mL in the test with Candida parapsilosis; over 64 µg/mL against Aspergillus fumigatus; 64 µg/mL in the test on Trichophyton rubrum; over 64 µg/mL with Cryptococcus neoformans; 32 µg/mL against Candida tropicalis. This compound also had an MIC80 against Pichia kudriavzevii of 8 µg/mL.

`CCCOc1ccc(-c2ccc(-c3ccc(C(=O)N[C@H]4CCCNC(=O)[C@@H]5C[C@H](N)CN5C(=O)[C@H](CCCCN)NC(=O)[C@H](CCc5ccc(O)cc5)NC(=O)[C@@H]5CCCN5C(=O)[C@H]([C@@H](C)O)NC4=O)cc3)cc2)cc1.Cc1ccc(S(=O)(=O)O)cc1` (X1-[Orn]TP[hTyr]K[Pro(4S-NH2)]; lactam 1-C): the MIC80 is 0.25 µg/mL against Candida albicans; 2 µg/mL against Candida parapsilosis; 1 µg/mL in the test with Aspergillus fumigatus; 64 µg/mL in the test with Trichophyton rubrum; 16 µg/mL with Cryptococcus neoformans; 16 µg/mL in the test with Candida tropicalis. This compound showed an MIC80 against Pichia kudriavzevii of 1 µg/mL.

Consider `CCCOc1ccc(-c2ccc(-c3ccc(C(=O)N[C@H]4CCCNC(=O)[C@@H]5C[C@H](N)CN5C(=O)[C@H](CCCCN)NC(=O)[C@H](CCc5ccc(O)cc5)NC(=O)[C@@H]5CCCN5C(=O)[C@H](C(C)C)NC4=O)cc3)cc2)cc1.Cc1ccc(S(=O)(=O)O)cc1` (X1-[Orn]VP[hTyr]K[Pro(4S-NH2)]; lactam 1-C), for which the MIC80 with Candida albicans stood at 0.5 µg/mL; in the test on Candida parapsilosis, 4 µg/mL; against Aspergillus fumigatus, 0.25 µg/mL; against Trichophyton rubrum, 16 µg/mL; in the test on Cryptococcus neoformans it was 32 µg/mL; against Candida tropicalis, 16 µg/mL. Besides, the MIC80 with Pichia kudriavzevii is 2 µg/mL.

Consider `CCCOc1ccc(-c2ccc(-c3ccc(C(=O)N[C@H]4CCCNC(=O)[C@@H]5C[C@H](N)CN5C(=O)[C@H](CCCN)NC(=O)[C@H](CCc5ccc(O)cc5)NC(=O)[C@@H]5CCCN5C(=O)[C@H](C(C)C)NC4=O)cc3)cc2)cc1.Cc1ccc(S(=O)(=O)O)cc1` (X1-[Orn]VP[hTyr][Orn][Pro(4S-NH2)]; lactam 1-C), for which the MIC80 against Candida albicans stood at 0.5 µg/mL; with Candida parapsilosis, 4 µg/mL; in the test with Aspergillus fumigatus, 0.5 µg/mL; against Trichophyton rubrum, 16 µg/mL; in the test with Cryptococcus neoformans it was 32 µg/mL; with Candida tropicalis, 8 µg/mL. In addition, the MIC80 in the test on Pichia kudriavzevii worked out at 2 µg/mL.

On to `CCCCCCCOc1ccc(-c2ccc(-c3ccc(C(=O)N[C@H]4CCCNC(=O)[C@@H]5C[C@H](N)CN5C(=O)[C@H](CCCCN)NC(=O)[C@H](CCc5ccc(O)cc5)NC(=O)[C@@H]5CCCN5C(=O)[C@H]([C@@H](C)O)NC4=O)cc3)cc2)cc1.Cc1ccc(S(=O)(=O)O)cc1` (X2-[Orn]TP[hTyr]K[Pro(4S-NH2)]; lactam 1-C), for which the MIC80 in the test with Candida albicans is 0.25 µg/mL; in the test on Candida parapsilosis it was 2 µg/mL; against Aspergillus fumigatus, 1 µg/mL; in the test on Trichophyton rubrum it was 16 µg/mL; against Cryptococcus neoformans, 16 µg/mL; in the test on Candida tropicalis, 8 µg/mL. In addition, in the test with Pichia kudriavzevii, the MIC80 was 1 µg/mL.

In the case of `CCCCCCCOc1ccc(-c2ccc(-c3ccc(C(=O)N[C@H]4CCCNC(=O)[C@@H]5C[C@H](N)CN5C(=O)[C@H](CCCN)NC(=O)[C@H](CCc5ccc(O)cc5)NC(=O)[C@@H]5CCCN5C(=O)[C@H]([C@@H](C)O)NC4=O)cc3)cc2)cc1.Cc1ccc(S(=O)(=O)O)cc1` (X2-[Orn]TP[hTyr][Orn][Pro(4S-NH2)]; lactam 1-C), the MIC80 was determined as 0.25 µg/mL in the test with Candida albicans; 2 µg/mL against Candida parapsilosis; 0.5 µg/mL in the test with Aspergillus fumigatus; 16 µg/mL against Trichophyton rubrum; 16 µg/mL in the test on Cryptococcus neoformans; 8 µg/mL against Candida tropicalis. The compound further came in with an MIC80 against Pichia kudriavzevii of 1 µg/mL.

For `CCCCCCCOc1ccc(-c2ccc(-c3ccc(C(=O)N[C@H]4CCCNC(=O)[C@@H]5C[C@H](N)CN5C(=O)[C@H](CCCCN)NC(=O)[C@H](CCc5ccc(O)cc5)NC(=O)[C@@H]5CCCN5C(=O)[C@H](C(C)C)NC4=O)cc3)cc2)cc1.Cc1ccc(S(=O)(=O)O)cc1` (X2-[Orn]VP[hTyr]K[Pro(4S-NH2)]; lactam 1-C), the MIC80 with Candida albicans turned out to be 1 µg/mL; against Candida parapsilosis, 4 µg/mL; in the test with Aspergillus fumigatus, 1 µg/mL; with Trichophyton rubrum, 16 µg/mL; with Cryptococcus neoformans it was 32 µg/mL; with Candida tropicalis, 16 µg/mL. For the same compound, in the test on Pichia kudriavzevii, the MIC80 amounted to 2 µg/mL.

Turning to `CCCCCCCOc1ccc(-c2ccc(-c3ccc(C(=O)N[C@H]4CCCNC(=O)[C@@H]5C[C@H](N)CN5C(=O)[C@H](CCCN)NC(=O)[C@H](CCc5ccc(O)cc5)NC(=O)[C@@H]5CCCN5C(=O)[C@H](C(C)C)NC4=O)cc3)cc2)cc1.Cc1ccc(S(=O)(=O)O)cc1` (X2-[Orn]VP[hTyr][Orn][Pro(4S-NH2)]; lactam 1-C), the MIC80 against Candida albicans was 1 µg/mL; against Candida parapsilosis, 8 µg/mL; against Aspergillus fumigatus, 1 µg/mL; with Trichophyton rubrum, 32 µg/mL; against Cryptococcus neoformans, 64 µg/mL; in the test on Candida tropicalis it was 16 µg/mL. In the test with Pichia kudriavzevii, this compound came in with an MIC80 of 2 µg/mL.

For the compound `CCCCCCCOc1ccc2cc(C(=O)N[C@H]3CCCNC(=O)[C@@H]4C[C@H](N)CN4C(=O)[C@H](CCCN)NC(=O)[C@H](CCc4ccc(O)cc4)NC(=O)[C@@H]4CCCN4C(=O)[C@H]([C@@H](C)O)NC3=O)ccc2c1.Cc1ccc(S(=O)(=O)O)cc1` ({2Naphthoyl(6-heptyloxy)}-[Orn]TP[hTyr][Orn][Pro(4S-NH2)]; lactam 1-C), the MIC80 against Candida albicans amounted to 0.25 µg/mL; with Candida parapsilosis it was 4 µg/mL; in the test on Aspergillus fumigatus, 1 µg/mL; against Trichophyton rubrum, 32 µg/mL; in the test with Cryptococcus neoformans, 32 µg/mL; in the test with Candida tropicalis, 32 µg/mL. The same compound came in with an MIC80 with Pichia kudriavzevii of 1 µg/mL.

With `CCCCCCCOc1ccc2cc(C(=O)N[C@H]3CCCNC(=O)[C@@H]4C[C@H](N)CN4C(=O)[C@H](CCCCN)NC(=O)[C@H](CCc4ccc(O)cc4)NC(=O)[C@@H]4CCCN4C(=O)[C@H](C(C)C)NC3=O)ccc2c1.Cc1ccc(S(=O)(=O)O)cc1` ({2Naphthoyl(6-heptyloxy)}-[Orn]VP[hTyr]K[Pro(4S-NH2)]; lactam 1-C), the MIC80 in the test with Candida albicans was found to be 0.5 µg/mL; in the test with Candida parapsilosis, 4 µg/mL; against Aspergillus fumigatus it was 1 µg/mL; against Trichophyton rubrum it was 32 µg/mL; with Cryptococcus neoformans, 32 µg/mL; in the test on Candida tropicalis it was 32 µg/mL. For the same compound, the MIC80 with Pichia kudriavzevii is 2 µg/mL.

In the case of `CCCCCCCOc1ccc2cc(C(=O)N[C@H]3CCCNC(=O)[C@@H]4C[C@H](N)CN4C(=O)[C@H](CCCN)NC(=O)[C@H](CCc4ccc(O)cc4)NC(=O)[C@@H]4CCCN4C(=O)[C@H](C(C)C)NC3=O)ccc2c1.Cc1ccc(S(=O)(=O)O)cc1` ({2Naphthoyl(6-heptyloxy)}-[Orn]VP[hTyr][Orn][Pro(4S-NH2)]; lactam 1-C), the MIC80 against Candida albicans was determined as 1 µg/mL; with Candida parapsilosis, 4 µg/mL; in the test on Aspergillus fumigatus it was 0.5 µg/mL; against Trichophyton rubrum it was 32 µg/mL; in the test on Cryptococcus neoformans, 32 µg/mL; with Candida tropicalis, 32 µg/mL. In the test on Pichia kudriavzevii, this compound gave an MIC80 of 2 µg/mL.

As to `CCCCCCCCOc1ccc2cc(C(=O)N[C@H]3CCCNC(=O)[C@@H]4C[C@H](N)CN4C(=O)[C@H](CCCCN)NC(=O)[C@H](CCc4ccc(O)cc4)NC(=O)[C@@H]4CCCN4C(=O)[C@H]([C@@H](C)O)NC3=O)ccc2c1.Cc1ccc(S(=O)(=O)O)cc1` ({2Naphthoyl(6-octyloxy)}-[Orn]TP[hTyr]K[Pro(4S-NH2)]; lactam 1-C), the MIC80 was found to be 0.5 µg/mL in the test on Candida albicans; 4 µg/mL against Candida parapsilosis; 1 µg/mL against Aspergillus fumigatus; 32 µg/mL in the test with Trichophyton rubrum; 32 µg/mL against Cryptococcus neoformans; 32 µg/mL in the test on Candida tropicalis. The same compound showed an MIC80 with Pichia kudriavzevii of 1 µg/mL.
